Experimental data published in patent US6399654B1, “Biflavanoids and derivatives thereof as antiviral agents” (priority 1995, dated 2002).
In brackets after ≈: the same amount, converted by molar mass. Like-named read-outs stand apart in the source and are kept apart here.

Columns and labels:
HSV-1 = HSV-1 CPE inhibition in HFF cells
in vitro [1] = details: human
HCMV = HCMV CPE inhibition in HFF cells
Measles Virus [2] = assay: microbe, parasite or virus in culture; type: cell-based; details: Measles morbillivirus, BSC-1; Measles Virus; read-out: CPI Inhibition EC50
Adenovirus Type 5 [3] = assay: Adenovirus type 5 neutral red dye uptake in A549 cells; type: cell-based; details: Human mastadenovirus C, A549; Adenovirus Type 5; read-out: Neutral Red EC50
Measles Virus [4] = assay: Measles virus neutral red dye uptake in BSC-1 cells; type: cell-based; details: Measles morbillivirus, BSC-1
VZV = VZV plaque reduction assay in HFF cells
[5] = tested on: Influenza A (H1N1) Texas/36/91; assay: microbe, parasite or virus in culture; type: cell-based, influenza A virus; details: Influenza A virus, MDCK; Influenza A (H1N1) Texas/36/91; read-out: CPE Inhibition EC50
[6] = tested on: Madin Darby canine kidney (MDCK) cells; details: Influenza A (H3N2) test
in vitro [7] = details: African green monkey, Neutral Red IC50 (cytotoxic)
[8] = Cytotoxicity by neutral red dye uptake, A549 cells; details: human, A549 cells (toxicity control wells)
in vitro [9] = details: human; remark: listed apart in the source
[10] = tested on: Influenza A (H3N2) Beijing/32/92; assay: microbe, parasite or virus in culture; type: cell-based, influenza A virus; details: Influenza A virus, MDCK; Influenza A (H3N2) Beijing/32/92; read-out: Neutral Red EC50
HIV-1 RT = target: T1, HIV-1 RT (Human immunodeficiency virus type 1 group M subtype B, UniProt P03366); assay: Anti-HIV-1 RT assay (recombinant enzyme); type: biochemical; details: for inhibition at 200 µg/mL: read-out: Anti-HIV-1 RT % Inhibition at 200 μg/ml
T1 construct: made in house; host or cells: Escherichia coli

HSV-2 = HSV-2 CPE inhibition in HFF cells
Adenovirus Type 5 [11] = assay: microbe, parasite or virus in culture; type: cell-based; details: Human mastadenovirus C, A549, read-out: CPE Inhibition EC50
Hepatitis B Virus (HBV) = assay: Inhibition of HBV replication in 2.2.15 cells, extracellular (virion) HBV DNA; details: Hepatitis B virus, 216 h;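 note: extracellular virion HBV DNA in culture medium measured by slot blot hybridization with a 32P-labeled HBV probe, quantified against HBV DNA standards, after 9 days of daily dosing, compared with day 0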
[12] = tested on: Influenza A (H1N1) Texas/36/91; assay: microbe, parasite or virus in culture; type: cell-based, influenza A virus; details: Influenza A virus, MDCK; Influenza A (H1N1) Texas/36/91; read-out: Neutral Red EC50
[13] = Cytotoxicity by neutral red dye uptake, MA-104 cells; details: African green monkey, MA-104 cells (toxicity control wells), Neutral Red IC50 (cytotoxic), Respiratory Syncytial Virus test
[14] = tested on: Influenza A (H3N2) Beijing/32/92; assay: microbe, parasite or virus in culture; type: cell-based, influenza A virus; details: Influenza A virus, MDCK; Influenza A (H3N2) Beijing/32/92; read-out: CPE Inhibition EC50
[15] = tested on: Parainfluenza Type 3 Virus; assay: organism not typed; type: cell-based; details: MA104; Parainfluenza Type 3 Virus; read-out: CPI Inhibition EC50
HIV-1 (strain LAV-1) = assay: microbe, parasite or virus in culture; type: cell-based; details: for EC50: Human immunodeficiency virus 1, PBMC, human PBM cells infected with HIV-1 (strain LAV), read-out: Ant-HIV-1 in PBM cells EC50
[16] = tested on: Respiratory Syncytial Virus; assay: microbe, parasite or virus in culture; type: cell-based; details: human respiratory syncytial virus, MA104; read-out: CPE Inhibition EC50
Influenza B Panama/45/90 = assay: microbe, parasite or virus in culture; type: cell-based; details: Influenza B virus, MDCK; Influenza B Panama/45/90; read-out: CPE Inhibition EC50
in vitro [17] = details: dog
[18] = tested on: Parainfluenza Type 3 Virus; assay: organism not typed; type: cell-based; details: MA104, read-out: Neutral Red EC50
in vitro [19] = details: human; remark: listed apart in the source
in vitro [20] = details: dog, Neutral Red IC50 (cytotoxic)
[21] = tested on: Respiratory Syncytial Virus; assay: microbe, parasite or virus in culture; type: cell-based; details: human respiratory syncytial virus, MA104; read-out: Neutral Red EC50
[22] = Cytotoxicity in uninfected PHA-stimulated human PBM cells; details: human
human PBM cells = assay: as above
[23] = Anti-HIV-1 RT IC50, values in parentheses or in words
[24] = HIV-1 RT IC50 (50% inhibition dose)

SMILES: O=c1cc(-c2ccc(O)c(-c3c(O)cc(O)c4c(=O)cc(-c5ccc(O)cc5)oc34)c2)oc2cc(O)cc(O)c12 [Amentoflavone (1), amentoflavone]
- HSV-1 SI (CC50/EC50) (HSV-1; HFF Cells): >5.6
- EC50 (HSV-1; Human alphaherpesvirus 1, HFF, read-out: HSV-1 CPE Inhibition EC50): 17.9 µg/mL (≈ 33.2 µM)
- IC50 (in vitro [1]): 35 µM
- HCMV SI (CC50/EC50) (HCMV; HFF Cells): >1.9
- EC50 (HCMV; Human betaherpesvirus 5, HFF, read-out: HCMV CPE Inhibition EC50): 50.8 µg/mL (≈ 94.3 µM)
- EC50 (Measles Virus [2]): < 40 µg/mL
- EC50 (Adenovirus Type 5 [3]): > 100 µg/mL
- EC50 (Measles Virus [4]): < 20 µg/mL
- VZV SI (CC50/EC50) (VZV; HFF Cells): <2.3
- EC50 (VZV; Human alphaherpesvirus 3, HFF, read-out: VZV Plaque Reduction EC50): > 4 µg/mL
- EC50 [5]: 3.1 µg/mL (≈ 5.76 µM)
- CPE Inhibition IC50 (cytotoxic) [6]: >100 µg/mL
- IC50 (in vitro [7]): ~56 µg/mL (≈ 104 µM)
- IC50 [8]: 74 µg/mL (≈ 137 µM)
- IC50 (in vitro [9]): 18 µg/mL (≈ 33.4 µM)
- EC50 [10]: 6.5 µg/mL (≈ 12.1 µM)
- IC50 (HIV-1 RT; [23]): 119 µM
- IC50 (HIV-1 RT; [24]): 119 µM
- inhibition at 200 µg/mL (HIV-1 RT): 97.3%
- HSV-2 SI (CC50/EC50) (HSV-2; HFF Cells): >2.1
- EC50 (HSV-2; Human alphaherpesvirus 2, HFF, read-out: HSV-2 CPE Inhibition EC50): 48 µg/mL (≈ 89.1 µM)
- EC50 (Adenovirus Type 5 [11]): > 100 µg/mL
- EC50 (Hepatitis B Virus (HBV); read-out: EC50 (50% effective dose), HBV Virion, 2.2.15 cells, extracellular (virion) HBV DNA, 9 days treatment): > 100 µM
- EC90 (Hepatitis B Virus (HBV); read-out: EC90 (90% effective dose), HBV Virion, 2.2.15 cells, extracellular (virion) HBV DNA, 9 days treatment): > 100 µM
- EC50 [12]: 5.3 µg/mL (≈ 9.84 µM)
- IC50 [13]: ~35 µg/mL (≈ 65 µM)
- EC50 [14]: 4.3 µg/mL (≈ 7.99 µM)
- EC50 [15]: > 100 µg/mL
- EC50 (HIV-1 (strain LAV-1)): > 10.9 µM
- EC50 [16]: ~10 µg/mL (≈ 18.6 µM)
- EC50 (Influenza B Panama/45/90): 0.56 µg/mL (≈ 1.04 µM)
- IC50 (in vitro [17]; CPE Inhibition IC50 (50% cell inhibitory (cytotoxic) concentration), Influenza A (H1N1) test): 22 µg/mL (≈ 40.9 µM)
- IC50 (in vitro [17]; CPE Inhibition IC50 (cytotoxic), Influenza A (H3N2) test): > 100 µg/mL
- IC50 (in vitro [17]; CPE Inhibition IC50 (cytotoxic), Influenza B test): 100 µg/mL (≈ 186 µM)
- EC50 [18]: ~32 µg/mL (≈ 59.4 µM)
- CC50 at 14 days (in vitro [19]; HCMV CPE Inhibition CC50): > 100 µg/mL
- CC50 at 3 days (in vitro [19]; HSV-1 CPE Inhibition CC50): > 100 µg/mL
- CC50 at 3 days (in vitro [19]; HSV-2 CPE Inhibition CC50): > 100 µg/mL
- CC50 at 10 days (in vitro [19]; VZV Plaque Reduction CC50): 9.3 µg/mL (≈ 17.3 µM)
- IC50 (in vitro [20]; Influenza A (H1N1) test): > 100 µg/mL
- IC50 (in vitro [20]; Influenza A (H3N2) test): > 100 µg/mL
- EC50 [21]: ~21 µg/mL (≈ 39 µM)

SMILES: O=C1CC(c2ccc(O)cc2)Oc2c1c(O)cc(O)c2C1C(=O)c2c(O)cc(O)cc2OC1c1ccc(O)cc1 (centres unmarked) [GB-1a(13), GB-1a]
- IC50 [22]: 88 µM
- toxicity against uninfected PHA-stimulated human PBM cells (in words) (human PBM cells): high toxicity
- IC50 (HIV-1 RT; [23]): 236 µM
- IC50 (HIV-1 RT; [24]): 236 µM
- inhibition at 200 µg/mL (HIV-1 RT): 86%
- anti-HIV-1 activity in PBM cells (in words) (HIV-1 (strain LAV-1)): good activity
- EC50 (HIV-1 (strain LAV-1)): 38 µM
- Selective Index (SI) (HIV-1 (strain LAV-1); PBM cells): 2.3
